According to patent US7273847B2, “Peptides with antioxidant and antimicrobial properties” (priority 2000, dated 2007):

Experiments:
GBS = experiment: Radial diffusion growth inhibition in agar; type: cell-based; conditions: 0.5 and 5.0 μg added
Description: (§1) A radial diffusion method was therefore used to examine the effect of the collectins and their individual structural domains on the growth of E. coli that were immobilized in agar (FIGS. 8,9). Wells were bored into plates containing agar impregnated with 2×10^6 E. coli/ml or GBS. Proteins to be tested were introduced into the wells and the plates were incubated overnight at 37° C.

E. coli K12 = experiment: Radial diffusion growth inhibition in agar; type: cell-based; conditions: for Inhibition of E. coli growth in presence of anti-mouse SP-A / anti-mouse SP-D antibodies / Inhibition of E. coli growth in presence of excess LPS vesicles: radial diffusion; for Inhibition of E. coli growth in presence of excess LPS vesicles: for SP-A>SP-D
Description: as §1

surfactant lipids [1] = experiment: TBARS assay of copper-induced oxidation of surfactant lipids; type: biochemical
LDL [2] = experiment: TBARS assay of copper-induced oxidation of LDL; type: biochemical, human; conditions: for TBARS LDL Malondialdehyde: mean ± S.E.M., n=3
Description: Substrates for lipid oxidation included mixtures of natural and synthetic glycerophospholipids that are found in pulmonary surfactant and human LDL. The surfactant lipid mix, composed of egg phosphatidylcholine, dipalmitoylphosphatidylcholine, cholesterol and 1-oleoyl-2-linoleoyl-sn-glycero-3-phosphocholine (1:1:0.15:0.15, w/w, respectively) (Avanti Polar Lipids) in chloroform, was dried to a film under nitrogen. Following hydration in PBS or 0.15 M NaCl for 30 min, multilamellar vesicles were generated by vigorous vortexing for 5 minutes. LDL were isolated from the plasma of normal blood donors by density gradient ultracentrifugation (density=1.019-1.063 g/ml) as previously described in Qin et al., Am. J. Physiol. 274(5 Pt 2): H1836-1840 (1998), and stored in saline-EDTA. Just prior to use, EDTA was removed by dialysis against PBS, and the concentration of LDL was determined by Lowry assay (in milligrams of LDL-associated protein).
Stock solutions of 10 mM CuSO4 were freshly prepared daily. Reaction mixtures containing 1 mg/mi surfactant lipids or 150 μg/ml LDL were incubated with 10 μM CuSO4 for 24 hours or 4 hours, respectively, in the presence of putative oxidation inhibitors or controls at 37° C. in a shaking water bath in accordance with the method of Gelvan et al., Biochim. Biophys. Acta 1035(3):353-360 (1990). Control reactions which included LDL only, 10 μM CuSO4 or protein controls of bovine serum albumin (BSA), rat IgG, recombinant MBP, rat serum and human complement C1q were performed concurrently with experimental samples. Thiobarbituric acid-reactive substances (TBARS) were measured using a method adapted from Gelvan et al., Biochim. Biophys. Acta 1035(3):353-360 (1990). Samples and 0-10 μM […] standards were developed by addition of a solution composed of 0.375% thiobarbituric acid, 15% trichloroacetic acid, and 0.25N HCl at a volume ratio of 1:2, sample: developer. Following incubation at 95° C. for 30 minutes and centrifugation at 14,000 rpm for 15 minutes, an aliquot was read at 540 nm in a spectrophotometer. For continuous assessment of lipid oxidation, the accumulation of conjugated dienes during LDL oxidation was monitored spectrophotometrically in accordance with the method of Esterbauer et al., Free Rad. Med. Biol. 13, 341-390 (1992). Mixtures of 150 μg/ml LDL, 10 μM copper, and various amounts of surfactant proteins or control proteins were placed in quartz cuvettes and allowed to oxidize at room temperature over 335 minutes. Conjugated diene formation was assessed by measuring absorbance at 234 nm in a spectrophotometer.
The data are set forth graphically in FIG. 3. Various concentrations of recombinant wild type SP-A (circle), mutant SP-A containing a deletion of the collagen-like domain (square) and mutant SP-A containing only the neck and C-lectin domain (CLD) (triangle) were incubated with LDL in the presence of 10 μM Cu^2+, and lipid peroxidation was quantified by TBARS assay. Data are means, n=3-4.

surfactant lipids [3] = conditions: comparison value; read-out: I.C.50 of antioxidant serum lipoprotein; cited from earlier work
LDL [4] = experiment: Western (immunoblot) analysis of protein carbonyl derivatives formed during copper mediated LDL oxidation; type: biochemical, human; conditions: SP-A 10 μg/ml, SP-D 1 μg/ml; alkylated SP-A 50 μg/ml, alkylated SP-D 10 μg/ml
Description: Proteins were analyzed for carbonyl modification of amino acid side groups that occur during lipid oxidation, as described in Levine et al., Methods Enzymol. 186, 464-478 (1990). Briefly, proteins that were included in reactions mixtures with LDL and 10 μM copper were derivatized to 2,4-dinitrophenylhydrazones (DNP-hydrazones) by reaction with 2,4-dinitrophenylhydrazine (DNPH), size fractionated by 8-16% SDS-PAGE under reducing conditions and electrophorectically transferred to nitrocellulose membranes (Oxyblot, Intergen). The membrane was sequentially incubated with a rabbit anti-DNP IgG and a horseradish peroxidase-conjugated goat anti-rabbit IgG. Blots were developed by HRP-dependent oxidation of a chemiluminescent substrate, and visualized using autoradiography.
To determine if the surfactant proteins act as sinks for reactive lipid intermediates, covalent modification of SP-A and SP-D during LDL oxidation was assessed using a western analysis technique that detects carbonyl adducts (Levine et al., Methods Enzymol. 186: 464-78 (1990)). As depicted by FIG. 4, oxidative modification of proteins that occurred during copper induced LDL oxidation were determined by Western analysis using an antibody to DNP-derivatized carbonyl moieties. Reaction mixtures contained LDL only, LDL+Cu^2+, LDL+Cu^2++albumin+10 μg/ml SP-A, LDL+Cu^2++albumin+1 μg/ml SP-D, LDL+Cu^2++albumin, LDL+Cu^2++albumin+50 μg/ml iodoacetamide treated SP-A, LDL+Cu^2++albumin+10 μg/ml iodoacetamide treated SP-D, 50 μg/ml albumin+50 μg/ml iodoacetamide treated SP-A, albumin+10 μg/ml iodoacetamide treated SP-D.

## lysozyme: positive control protein lysozyme [reference compound]
GBS
  Clearing in GBS plates: dose-dependent clearing
E. coli K12; 0.5 and 5.0 μg added
  Clearing in E. coli plates: dose-dependent clearing

## Clq: human complement C1q, the first component of complement [reference compound]
Surfactant lipids [1]; 50 μg/ml control protein
  Protection from oxidation of surfactant lipids: no protection from oxidation
Surfactant lipids [1]; Lipid + Cu2+ + 50 μg/ml protein, mean ± S.E.M., n=3
  TBARS Surfactant lipids Malondialdehyde: 1.15 ± 0.07 µM
LDL [2]; 50 μg/ml
  Effect on LDL lipid oxidation: no effect on LDL lipid oxidation
LDL [2]; LDL + Cu2+ + 50 μg/ml protein
  TBARS LDL Malondialdehyde: 4.16 ± 0.05 µM

## recombinant mouse SP-A: recombinant mouse SP-A
E. coli K12
  Inhibition of E. coli growth in presence of anti-mouse SP-A / anti-mouse SP-D antibodies: blocked
  Inhibition of E. coli growth in presence of excess LPS vesicles: blocked

B1: ApoAIV: antioxidant serum lipoprotein ApoAIV (protein, UniProt P06727 21-396, looked up)
Apolipoprotein A-IV: EVSADQVATVMWDYFSQLSNNAKEAVEHLQKSELTQQLNALFQDKLGEVNTYAGDLQKKLVPFATELHERLAKDSEKLKEEIGKELEELRARLLPHANEVSQKIGDNLRELQQRLEPYADQLRTQVSTQAEQLRRQLTPYAQRMERVLRENADSLQASLRPHADELKAKIDQNVEELKGRLTPYADEFKVKIDQTVEELRRSLAPYAQDTQEKLNHQLEGLTFQMKKNAEELKARISASAEELRQRLAPLAEDVRGNLRGNTEGLQKSLAELGGHLDQQVEEFRRRVEPYGENFNKALVQQMEQLRQKLGPHAGDVEGHLSFLEKDLRDKVNSFFSTFKEKESQDKTLSLPELEQQQEQQQEQQQEQVQMLAPLES
Surfactant lipids [3]
  IC50: 50 nM

B2: alkylated SP-D: rat SP-D alkylated by incubation with 0.5 M iodoacetamide (protein, UniProt P35248 20-374, looked up)
Pulmonary …: AEMKTLSQRSITNTCTLVLCSPTENGLPGRDGRDGREGPRGEKGDPGLPGPMGLSGLPGPRGPVGPKGENGSAGEPGPKGERGLVGPPGSPGISGPAGKEGPSGKQGNIGPQGKPGPKGEAGPKGEVGAPGMQGSAGAKGPAGPKGERGAPGEQGAPGNAGAAGPAGPAGPQGAPGSRGPPGLKGDRGAPGDRGIKGESGLPDSAALRQQMEALNGKLQRLEAAFSRYKKAALFPDGQSVGDKIFRAANSEEPFEDAKEMCRQAGGQLASPRSATENAAVQQLVTAHSKAAFLSMTDVGTEGKFTYPTGEALVYSNWAPGEPNNNGGAENCVEIFTNGQWNDKACGEQRLVICEF
modifications: alkylated with iodoacetamide
notes: rat SP-D alkylated by incubation with 0.5 M iodoacetamide
LDL [2]; LDL + Cu2+ + 10 μg/ml protein
  TBARS LDL Malondialdehyde: 3.92 ± 0.14 µM
LDL [4]
  LDL oxidation in carbonyl Western analysis: neither alkylated SP-A at 50 μg/ml or alkylated SP-D at 10 μg/ml inhibited lipid oxidation

B3: recombinant mouse SP-D: recombinant mouse SP-D (protein)
chain: AEMKSLSQRSVPNTCTLVMCSPTENGLPGRDGRDGREGPRGEKGDPGLPGPMGLSGLQGPTGPVGPKGENGSAGEPGPKGERGLSGPPGLPGIPGPAGKEGPSGKQGNIGPQGKPGPKGEAGPKGEVGAPGMQGSTGAKGSTGPKGERGAPGVQGAPGNAGAAGPAGPAGPQGAPGSRGPPGLKGDRGVPGDRGIKGESGLPDSAALRQQMEALKGKLQRLEVAFSHYQKAALFPDGRSVGDKIFRTADSEKPFEDAQEMCKQAGGQLASPRSATENAAIQQLITAHNKAAFLSMTDVGTEGKFTYPTGEPLVYSNWAPGEPNNNGGAENCVEIFTNGQWNDKACGEQRLVICEF
E. coli K12
  Inhibition of E. coli growth in presence of anti-mouse SP-A / anti-mouse SP-D antibodies: blocked
  Inhibition of E. coli growth in presence of excess LPS vesicles: blocked
